Measured values from patent US11648220B2, “Methods for the treatment of myeloid derived suppressor cells related disorders” (The Rockefeller University, priority 2016, dated 2023).

Experiments:
[1] = tested on: myeloid-derived suppressor cells (MDSCs) in B16F10 melanoma; assay: tumor-infiltrating MDSCs in B16F10 tumor-bearing mice (flow cytometry, Gr1 immunohistochemistry); format: in vivo
Description: (§1) All mouse studies were conducted according to a protocol approved by the Institutional Animal Care and Use Committee at the Rockefeller University. C57BL/6 mice were obtained from the Jackson Laboratory. For experiments testing the effect of LXR agonists on tumor growth, mice were assigned to a control chow or a chow supplemented with compound 682 (Sigma-Aldrich) or compound 705 (Rgenix, Inc.) at 50, or 100 mg/kg/day, as indicated. For combination drug regimens, mice were fed a compound 705-supplemented diet and co-treated with anti-PD-1 antibody (clone RMP1-14 BioXcell), 10 mg/kg by i.p. injection every 3 days for 3 total doses starting on the day of tumor injection. All drug-formulated diets were prepared by Research Diets.
All mouse studies were conducted according to a protocol approved by the Institutional Animal Care and Use Committee at the Rockefeller University. […]
(§2) At the indicated day, tumors were isolated from euthanized mice and minced into small (˜1 mm^2) pieces with a scalpel and then enzymatically dissociated. […] After staining, cells were subsequently analyzed by flow cytometry using an LSRII flow cytometer (BD Biosciences). Data was analyzed using FlowJo software. […]
At the indicated day, blood was drawn from mice and treated with RBC Lysis Buffer (Sigma) followed by filtration through a […] filter (Corning Inc) to obtain a single cell suspension of lymphocytes. […] After staining, cells were subsequently analyzed by flow cytometry using an LSRII flow cytometer (BD Biosciences). Data was analyzed using FlowJo software.
For MDSC quantification studies, frozen tumor sections (no fixation) were stained with an antibody against Gr1 (1:1000; BioXcell). […]

[2] = tested on: MDSCs; assay: MDSC abundance assay; format: cell-based, mice; details: 1 μM, 3 hours
Description: MDSCs were isolated from the spleens of tumor-bearing wild-type or ApoE−/− mice, as indicated, using the MACS Myeloid-Derived Suppressor Cell Isolation Kit (Miltenyi Biotech) according to manufacturer's protocol. MDSCs were then incubated in RPMI (Sigma) supplemented with 10% FBS and either COMPOUND 705 (dissolved in 2% DMSO at the indicated concentration) or control (2% DMSO) and subsequently incubated at 37° C. for the indicated time. Abundance was assessed by quantifying the percent of live cells using propidium Iodide staining. […]

[3] = tested on: CD8+ T-cells co-cultured with MDSCs; assay: T-cell suppression assay; format: cell-based; details: 24 hours co-culture with MDSCs from treated tumor-bearing mice
Description: CD8+ cells were purified from single cell suspensions from spleens of mice using the MACS CD8+ T-cell isolation kit (Miltenyi Biotech) according to manufacturer's protocol. Cells were then labeled with cell tracker reagent (BV). The labeled CD8+ T cells were plated on 96-well plates coated with 1 mg/ml anti-CD3 and anti-CD28 beads (Dynabeads® Mouse T-Activator CD3/CD28 for T-Cell Expansion and Activation; Gibco). Recombinant IL-2 (Gibco) was then added to the wells according to manufacturer's protocol. MDSC were then isolated using the MACS Myeloid-Derived Suppressor Cell Isolation Kit (Miltenyi Biotech) according to manufacturer's protocol and subsequently added in the indicated MDSC:T-cell ratios. Cells were incubated at 37° C. for 24-36 hours. T-cell activation was measured by flow cytometry by assessing the percent of T-cells positive for IFNγ staining with diluted BV dye.

[4] = tested on: B16F10 melanoma; assay: B16F10 tumors, compound 705 plus anti-PD-1 antibody; format: in vivo, mice; details: B16F10, diet 50 mg/kg/day plus anti-PD-1 antibody 10 mg/kg I.P. every 3 days
Description: as §1, with “Diets. […]” for “Diets.”
as §2
After tumor cell injection, animals were treated with anti-PD-1 antibody at a dose of 10 mg/kg (clone RMP1-14; BioXcell), by intraperitoneal (I.P.) injection every 3 days for 3 total doses starting on the day of tumor injection. […] Tumor dimensions were measured using digital calipers, and tumor volume was calculated as (small diameter)^2×(large diameter)/2. […]

[5] = tested on: B16F10 melanoma; assay: B16F10 tumors, compound 705 plus adoptive transfer of Pmel CD8+ T-cells (survival); format: in vivo, mice; details: B16F10, diet 50 mg/kg/day plus 2×10^6 Pmel CD8+ T-cells
Description: (§3) All mouse studies were conducted according to a protocol approved by the Institutional Animal Care and Use Committee at the Rockefeller University. C57BL/6 (WT); and Pmel (B6.Cg-Thy1^a/Cy Tg(TcraTcrb)8Rest/J mice were obtained from the Jackson Laboratory. To determine the effect of LXR agonists on in vivo primary tumor growth, mice were injected with 5×10^4 B16F10 melanoma cells. For all tumor growth experiments, cells (suspension in […] of PBS) were mixed 1:1 with matrigel (356231, BD Biosciences, Bedford, Mass.) and subcutaneously injected into the lower flank of 6-8 week-old sex-matched mice. Following formation of tumors, mice were assigned to the following treatment groups as described below. All drug-formulated diets were prepared by Research Diets. After the indicated number of days, either peripheral blood or tumors were isolated to obtain tumor-infiltrating lymphocytes for flow-cytometry analysis as described below.
After tumor cell injection, tumor volumes were measured every two days. Upon tumors measuring 90-100 mm^3 in volume (day 6-7), mice were randomly assigned to a control diet treatment or a COMPOUND 705-supplemented diet (50 mg/kg/day; Rgenix).
The following day, 2×10^6 CD8+ T-cells from Pmel mice were adoptively transferred via retro-orbital injection into both control and COMPOUND 705 treated mice. […]

[6] = molecular target: T1, LXRα (Homo sapiens, UniProt Q13133); details: cited from earlier work
T1 sequence (Q13133 1-447): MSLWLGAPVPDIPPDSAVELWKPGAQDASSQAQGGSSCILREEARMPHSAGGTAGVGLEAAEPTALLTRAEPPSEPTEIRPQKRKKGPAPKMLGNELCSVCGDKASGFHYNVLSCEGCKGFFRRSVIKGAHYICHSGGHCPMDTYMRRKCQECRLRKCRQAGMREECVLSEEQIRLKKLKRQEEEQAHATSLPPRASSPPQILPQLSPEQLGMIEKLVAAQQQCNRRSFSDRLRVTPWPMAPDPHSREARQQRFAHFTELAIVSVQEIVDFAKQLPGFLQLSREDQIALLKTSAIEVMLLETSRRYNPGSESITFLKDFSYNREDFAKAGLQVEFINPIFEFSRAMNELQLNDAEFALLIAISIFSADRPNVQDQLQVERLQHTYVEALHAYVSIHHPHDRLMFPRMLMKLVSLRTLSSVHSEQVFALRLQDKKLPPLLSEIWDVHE

[7] = molecular target: T2, LXRβ (Homo sapiens, UniProt P55055); assay: ligand sensing assay (LiSA), LXRβ; format: biochemical
T2 sequence (P55055 1-460): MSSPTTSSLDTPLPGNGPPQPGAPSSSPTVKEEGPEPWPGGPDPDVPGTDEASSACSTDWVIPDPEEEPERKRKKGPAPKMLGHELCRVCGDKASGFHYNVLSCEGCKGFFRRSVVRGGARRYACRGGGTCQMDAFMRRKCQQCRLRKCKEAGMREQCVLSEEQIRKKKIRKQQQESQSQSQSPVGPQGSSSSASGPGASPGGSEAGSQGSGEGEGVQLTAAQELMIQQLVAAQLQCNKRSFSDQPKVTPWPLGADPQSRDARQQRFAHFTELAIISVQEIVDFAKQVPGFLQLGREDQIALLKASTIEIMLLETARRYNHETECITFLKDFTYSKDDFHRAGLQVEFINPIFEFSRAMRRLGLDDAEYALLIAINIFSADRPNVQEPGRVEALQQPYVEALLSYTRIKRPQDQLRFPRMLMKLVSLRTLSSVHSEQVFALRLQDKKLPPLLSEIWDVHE
From the text: As used herein, reference to the activity of an LXR agonist at LXRα and LXRβ refer to the activity as measured using the ligand sensing assay (LiSA) described in Spencer et al. Journal of Medicinal Chemistry 2001, 44, 886-897, incorporated herein by reference. […] For example, the methods of the invention can be performed using an LXRβ agonist having activity for LXRβ that is at least 3-fold greater than the activity of the agonist for LXRα, or having activity for LXRβ that is at least 10-fold greater than the activity of the agonist for LXRα, or having activity for LXRβ that is at least 100-fold greater than the activity of said agonist for LXRα, or having activity for LXRβ that is at least within 3-fold of the activity of the agonist for LXRα. The term “greater activity” in the LiSA assay refers to a lower EC50.

[8] = tested on: activated CD8+ T-cells in B16F10 melanoma; assay: tumor-infiltrating activated CD8+ T-cells in B16F10 tumor-bearing mice (flow cytometry); format: in vivo; details: supplemented diet 100 mg/kg/day, tumors isolated day 12-14
Description: as §3, with “After the indicated number of days, either peripheral blood or tumors were isolated to obtain tumor-infiltrating lymphocytes for flow-cytometry analysis as described below.” left out
as §2
After tumor cell injection, animals were palpated every two days for tumor formation. […] Tumor dimensions were measured using digital calipers, and tumor volume was calculated as (small diameter)^2×(large diameter)/2. […]

[9] = daily I.P. injection 2 mg, day 12-14

CC(CCOc1cccc(CC(=O)O)c1)N(Cc1cccc(C(F)(F)F)c1Cl)CC(c1ccccc1)c1ccccc1 (stereo not shown) [Compound 705]
number of granulocytic MDSCs (G-MDSC) [1, 9]: reduces the number
number of monocytic MDSCs (M-MDSC) [1, 9]: reduces the number
abundance of MDSCs in vitro [2]: reduces abundance of MDSCs in vitro
MDSC-mediated suppression of CD8+ T-cells [3]: reverses MDSC-mediated suppression of CD8+ T-cells
anti-tumor T-cell response induced with anti-PD-1 antibody therapy [4]: enhances the anti-tumor T-cell response
anti-tumor activity of adoptively transferred melanoma-targeting CD8+ T-cells [5]: enhances the anti-tumor activity

CC(C)(O)c1cn(-c2ccc(-c3cccc(S(C)(=O)=O)c3)cc2)c(C(C)(C)c2ccccc2Cl)n1 [Compound 718]
EC50 [6]: 101 to 1000 nM

O=C(O)Cc1cccc(OCCCN(Cc2cccc(C(F)(F)F)c2Cl)CC(c2ccccc2)c2ccccc2)c1 [Compound 682]
fold greater activity for LXRβ compared to LXRα [7]: approximately 6 fold
number of tumor-infiltrating myeloid-derived suppressor cells (MDSCs) ([1]; supplemented diet 100 mg/kg/day, tumors isolated day 12-14): reduces the number of tumor-infiltrating myeloid-derived suppressor cells
number of tumor-infiltrating activated CD8+ T-cells [8]: increases the number of tumor-infiltrating activated CD8+ T-cells
